Source: patent US9822086B2, “Process for the preparation of vortioxetine salts” (Egis Gyogyszergyar Zrt., priority 2014, dated 2017)

Assay: Particle size distribution (Malvern Mastersizer 3000) of starting and vortex-mill ground salts
Format: physicochemical
Procedure: The vortioxetine salts according to the present invention can be ground preferably in a vortex mill, if necessary. Such active ingredients ground in a vortex mill are used in the pharmaceutical compositions according to examples 20-23.
The distribution of the particle size is measured on a Malvern Mastersizer 3000 apparatus under the following conditions: […]

[1] = dispersing pressure 2.0 bar, hemicitrate salt
[2] = dispersing pressure 2.0 bar, monooxalate salt

1-[2-(2,4-dimethyl-phenylsulfanyl)-phenyl]-piperazine L-(+)-mandelic acid salt [Vortioxetine-L-mandalate ground]
Characteristic particle size d10 (dispersing pressure 2.0 bar): 0.5 (±0.6%) μm
Characteristic particle size d50 (dispersing pressure 2.0 bar): 2.1 (±0.2%) μm
Characteristic particle size d90 (dispersing pressure 2.0 bar): 5.0 (±0.9%) μm

1-[2-(2,4-dimethyl-phenylsulfanyl)-phenyl]-piperazine L-(+)-mandelic acid salt [Vortioxetine-L-mandalate]
Characteristic particle size d10 (dispersing pressure 2.0 bar): 8.6 (±0.2%) μm
Characteristic particle size d50 (dispersing pressure 2.0 bar): 41.5 (±0.2%) μm
Characteristic particle size d90 (dispersing pressure 2.0 bar): 114 (±0.9%) μm

1-[2-(2,4-dimethyl-phenylsulfanyl)-phenyl]-piperazine hemicitrate salt [Vortioxetine-hemicitrate ground]
Characteristic particle size d10 [1]: 0.6 (±0.7%) μm
Characteristic particle size d50 [1]: 2.9 (±0.2%) μm
Characteristic particle size d90 [1]: 9.1 (±1.1%) μm

1-[2-(2,4-dimethyl-phenylsulfanyl)-phenyl]-piperazine hemicitrate salt [Vortioxetine-hemicitrate]
Characteristic particle size d10 [1]: 5.3 (±0.4%) μm
Characteristic particle size d50 [1]: 25.9 (±0.7%) μm
Characteristic particle size d90 [1]: 83.6 (±0.4%) μm

Br.Cc1ccc(Sc2ccccc2N2CCNCC2)c(C)c1 [Vortioxetine-hydrobromide ground, 1-[2-(2,4-dimethyl-phenylsulfanyl)-phenyl]-piperazine hydrobromide salt, reference compound]
Characteristic particle size d10 (dispersing pressure 2.0 bar): 0.4 (±0.5%) μm
Characteristic particle size d50 (dispersing pressure 2.0 bar): 2.1 (±0.7%) μm
Characteristic particle size d90 (dispersing pressure 2.0 bar): 6.2 (±1.0%) μm

Br.Cc1ccc(Sc2ccccc2N2CCNCC2)c(C)c1 [Vortioxetine-hydrobromide, 1-[2-(2,4-dimethyl-phenylsulfanyl)-phenyl]-piperazine hydrobromide salt, reference compound]
Characteristic particle size d10 (dispersing pressure 4.0 bar): 1.4 (±2.2%) μm
Characteristic particle size d50 (dispersing pressure 4.0 bar): 10.8 (±1.6%) μm
Characteristic particle size d90 (dispersing pressure 4.0 bar): 98.6 (±4.3%) μm

Cc1ccc(Sc2ccccc2N2CCNCC2)c(C)c1.O=C(O)C(=O)O [Vortioxetine-monooxalate ground, 1-[2-(2,4-dimethyl-phenylsulfanyl)-phenyl]-piperazine monooxalate salt]
Characteristic particle size d10 [2]: 0.7 (±0.5%) μm
Characteristic particle size d50 [2]: 2.2 (±0.7%) μm
Characteristic particle size d90 [2]: 5.9 (±0.9%) μm

Cc1ccc(Sc2ccccc2N2CCNCC2)c(C)c1.O=C(O)C(=O)O [Vortioxetine-monooxalate, 1-[2-(2,4-dimethyl-phenylsulfanyl)-phenyl]-piperazine monooxalate salt]
Characteristic particle size d10 [2]: 2.0 (±0.3%) μm
Characteristic particle size d50 [2]: 6.8 (±0.5%) μm
Characteristic particle size d90 [2]: 21.14 (±0.7%) μm
